# Measured values: patent US20100150884A1, “Anticancer Agent to Be Combined with Telomelysin” (priority 2005, published 2010)
# Key:
# [1] = test system: various cancer cells cultured in vitro; assay: XTT assay, combined effect of Telomelysin and anticancer agent, cell strains not named individually; type: cell-based, human
# Description: (§1) Telomelysin was infected to the following various cancer cells cultured in vitro at the concentrations of 0 (Mock), 0.1 or 1 MOI (multiplicity of infection). The cells used were as follows.
# (§2) Specifically, 1×10^3 cells from each of the above cell strains were plated in a 96-well plate. After 24 hours, cells were counted and the virus was added to the culture broth at a concentration of 0.1 MOI or 1 MOI.
# (§3) On the next day, docetaxel was added to the virus-infected cell culture broth at various concentrations (control, 0.1 nM, 1.0 nM, 10.0 nM and 100.0 nM).
# (§4) On day 5 of infection, XTT assay was performed using a kit (Roche Diagnostics). Briefly, the culture broth was removed from the plate. A reaction solution containing XTT reagent was prepared and added to the plate. Cells were cultured for about 4 hours. Then, absorbance was measured with a microtiter plate (ELISA) reader, and the number of viable cells was calculated to thereby confirm antitumor effect.
# XTT assays were performed in the same manner as described above using microtubule inhibitor vinorelbine and topoisomerase I inhibitor SN-38 (CPT-11 metabolite) as anticancer agents combined with Telomelysin.
# H1299 tumor tissue = assay: HE staining of tumor tissue after intratumoral administration; type: in vivo, nude mice; settings: Telomelysin in combination with docetaxel; six days after the final administration
# Description: (§5) H1299 was inoculated subcutaneously at the back of 5-week old nude mice. When the tumor reached 5-10 mm in size, Telomelysin was administered intratumorally. Six days after the final administration, tumor tissue and liver were stained with HE as described below. Briefly, tissue sections were prepared, deparaffinized and washed with water. Then, distilled water was fed to the tissue section. Hematoxylin solution was added thereto and left stationary for 20 minutes. Then, the section was rinsed with water lightly. The resultant section was fractionated with 1% hydrochloric acid/70% alcohol, followed by color development. Then, the tissue section was washed with water for 10 minutes, passed through 80% ethanol, and dipped in eosin solution for 10 minutes. Subsequently, the tissue section was washed with water lightly, dehydrated, cleared and mounted to thereby perform HE staining.
# [2] = test system: human lung cancer cell H1299 and human large bowel cancer cell SW620; assay: Quantitative real-time PCR of E1A gene, proliferation/replication of Telomelysin; type: cell-based; settings: Telomelysin 0.1 MOI in combination with docetaxel versus alone
# Description: How the proliferation of Telomelysin would be affected when an anticancer agent acting on microtubule is combined with Telomelysin was analyzed by quantitative real-time PCR.
# Human lung cancer cell H1299 and human large bowel cancer cell SW620 were infected with Telomelysin at 0.1 MOI for 2 hours. Two hours thereafter, docetaxel was administered. At 12, 24, 36, 48 and 60 hours after the infection, cells were harvested. DNA contained in the cells and in the supernatant was extracted separately. Real-time PCR was performed using primers targeting the E1A gene carried by Telomelysin, to thereby analyze viral proliferation/replication quantitatively. Specifically, 2 μl of DNA extract was added to 18 μl of PCR solution. PCR was performed using E1A primers under the following conditions.
# Composition of the PCR solution: • 1×LC FastStart DNA Master SYBR Green I • 3 mM MgCl2 • 0.5 μM each primer Reaction conditions: • 95° C., 10 min • (95° C., 10 sec; 60° C., 15 sec; 72° C., 8 sec)×40 cycles • 70° C., 15 sec • 40° C., 30 sec
# [3] = test system: H1299 lung cancer cell tumor; assay: In vivo antitumor effect, H1299 subcutaneous tumor, tumor size; parameters: species or system nude mice; settings: combination: Telomelysin intratumoral 1×10^7 pfu and docetaxel 12.5 mg/kg intraperitoneal, three times
# Description: H1299 was inoculated subcutaneously at the back of 5-week old nude mice. One, three and five days after the tumor reached 5-10 mm in size, Telomelysin was administered intratumorally at a dose of 1×10^7 pfu/50 μl/mouse and docetaxel was administered at a dose of 12.5 mg/kg intraperitoneally both three times in the total. As a control, PBS was administered intratumorally and intraperitoneally. Tumor size was measured in every three days.
# H226Br cells = assay: XTT assay, combined effect of Telomelysin and anticancer agent; type: cell-based, human
# Description: as §1, §2, §3, §4
# LNCaP cells = assay: as above; type: cell-based, human; settings: docetaxel combined with Telomelysin; day 5 of infection
# Description: as §1, §2, §3, §4
# HepG2 cells = assay: as above; type: cell-based, human; settings: docetaxel combined with Telomelysin; day 5 of infection
# Description: as §1, §2, §3, §4
# H1299 cells = assay: as above; type: cell-based, human; settings: low concentrations of docetaxel combined with Telomelysin 0.1 MOI; day 5 of infection
# Description: as §1, §2, §3, §4
# T.Tn cells = assay: as above; type: cell-based, human
# Description: as §1, §2, §3, §4
# tumor cells = assay: Cell cycle analysis with PI (propidium iodide) using flow cytometry; type: cell-based; settings: for sub G0/G1: after G2/M arrest; for cell cycle arrest: began 12 hours after administration
# Source text: The influence of the substance having an antitumor effect and the recombinant virus used in combination in the pharmaceutical composition of the present invention upon the cell cycle of target cells may be examined, for example, by analyzing cell cycle with a nuclear dye PI (propidium iodide) using flow cytometry.
# As a result of cell death, cell membranes become unable to retain their states and nuclei are readily stained with a nuclear dye such as PI mentioned above. Therefore, DNA content and cell cycle can be judged from the results of nuclear staining with PI. Here, it should be note that when ratios of S phase and G2/M phase in cell cycle are high in tumor cells, the malignancy is judged to be high.
# Cell cycle was analyzed with PI (propidium iodide) using flow cytometry.
# liver = assay: HE staining of liver after intratumoral administration; type: in vivo, nude mice; settings: Telomelysin in combination with docetaxel; six days after the final administration
# Description: as §5
# [4] = docetaxel combined with Telomelysin, day 5 of infection
# [5] = Telomelysin and docetaxel in combination
smiles,measurement,setting,value
CCc1c2c(nc3ccc(O)cc13)-c1cc3c(c(=O)n1C2)COC(=O)[C@]3(O)CC [SN-38],"combined effect (antitumor effect, viable cells)","[1]; SN-38 combined with Telomelysin, when the concentration of SN-38 was low",combined effect was observed
same,sensitivity of cell strains to SN-38,[1]; any of the cell strains tested,has sensitivity
CC(=O)O[C@@]12CO[C@@H]1C[C@H](O)[C@@]1(C)C(=O)[C@H](O)C3=C(C)[C@@H](OC(=O)[C@H](O)[C@@H](NC(=O)OC(C)(C)C)c4ccccc4)C[C@@](O)([C@@H](OC(=O)c4ccccc4)[C@H]21)C3(C)C [docetaxel],hyaline degeneration of tumor cells,H1299 tumor tissue,observed in a wide range
same,proliferation efficiency of Telomelysin diffused in supernatant (E1A DNA),[2],equal proliferation efficiency
same,antitumor effect (tumor size) compared to the control group and single use groups,[3],still more significant antitumor effect
same,"combined effect (antitumor effect, viable cells)",H226Br cells; [4],evident combined effect was not observed
same,sensitivity of cell strain to docetaxel,H226Br cells; docetaxel itself,sensitivity to docetaxel itself
same,"combined effect (antitumor effect, viable cells)",LNCaP cells,evident combined effect was not observed
same,"combined effect (antitumor effect, viable cells)",HepG2 cells,evident combined effect was not observed
same,"combined effect (antitumor effect, viable cells)",H1299 cells,especially remarkable
same,"combined effect (antitumor effect, viable cells)",T.Tn cells; [4],evident combined effect was not observed
same,sensitivity of cell strain to docetaxel,T.Tn cells; docetaxel itself,sensitivity to docetaxel itself
same,apoptosis observed,tumor cells; [5],apoptosis (DNA fragmentation)
same,sub G0/G1,tumor cells; [5],increased gradually
same,cell cycle arrest,tumor cells; [5],G2/M arrest
same,apoptosis observed,tumor cells; docetaxel administered alone,apoptosis (DNA fragmentation)
same,sub G0/G1,tumor cells; docetaxel administered alone,increased gradually
same,cell cycle arrest,tumor cells; docetaxel administered alone,G2/M arrest
same,toxicity in liver tissue,liver,Toxicity was not observed
CCC1=C[C@@H]2CN(C1)Cc1c([nH]c3ccccc13)[C@@](C(=O)OC)(c1cc3c(cc1OC)N(C)[C@H]1[C@@](O)(C(=O)OC)[C@H](OC(C)=O)[C@]4(CC)C=CCN5CC[C@]31[C@@H]54)C2 [vinorelbine],"combined effect (antitumor effect, viable cells)",[1]; vinorelbine combined with Telomelysin,combined effect almost equal to that shown by docetaxel
